Reference: ChEMBL document CHEMBL5038653, “A Brain-Penetrant and Bioavailable Pyrazolopiperazine BACE1 Inhibitor Elicits Sustained Reduction of Amyloid β In Vivo” (ACS Med Chem Lett, 2022)
pIC50: −log10 of the molar value. ≈ marks a conversion by molar mass, not a printed value.

Tests used:
[1] = Tmax in mouse at 2.1 mg/kg, po; format: ADME, organism-based; details: in vivo
[2] = Drug level in CD-1 mouse plasma at 10 mg/kg, po measured at 4 hr post dose; format: ADME, organism-based
[3] = target: T1, Cytochrome P450 1A2 (Homo sapiens, UniProt P05177); experiment: Inhibition of human CYP1A2 by fluorescence plate reader analysis; format: ADME
T1 sequence (P05177 whole entry): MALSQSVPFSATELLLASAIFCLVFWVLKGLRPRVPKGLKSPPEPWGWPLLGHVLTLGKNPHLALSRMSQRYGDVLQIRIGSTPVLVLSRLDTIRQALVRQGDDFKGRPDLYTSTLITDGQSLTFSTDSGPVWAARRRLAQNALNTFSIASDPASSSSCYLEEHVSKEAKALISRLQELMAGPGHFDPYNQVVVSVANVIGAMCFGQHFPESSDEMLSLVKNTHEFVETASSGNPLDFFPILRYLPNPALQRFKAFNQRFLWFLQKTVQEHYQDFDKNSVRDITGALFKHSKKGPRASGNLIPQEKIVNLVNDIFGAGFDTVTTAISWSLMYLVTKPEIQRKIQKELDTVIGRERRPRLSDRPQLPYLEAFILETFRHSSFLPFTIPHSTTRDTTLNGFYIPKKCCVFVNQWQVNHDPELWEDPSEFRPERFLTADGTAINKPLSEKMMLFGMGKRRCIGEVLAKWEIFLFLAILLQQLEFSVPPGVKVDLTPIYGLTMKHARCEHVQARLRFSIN

[4] = Cardiotoxicity in guinea pig assessed as effect on QRS interval upto 5 mg/kg, iv administered over 10 mins at 30 mins interval by ECG analysis; format: toxicity, organism-based, Cavia porcellus; details: in vivo
[5] = AUC (0 to infinity) in mouse at 0.28 mg/kg, iv; format: ADME, organism-based; design: time infinity, route intravenous, dose 0.28 mg/kg; details: in vivo
[6] = Free drug concentration in mouse plasma measured after 4.5 hrs by HPLC-MS/MS method; format: ADME, cell-free
[7] = Half life in mouse at 0.28 mg/kg, iv; format: ADME, organism-based; details: in vivo
[8] = Cardiotoxicity in guinea pig assessed as effect on heart rate upto 5 mg/kg, iv administered over 10 mins at 30 mins interval by ECG analysis; format: toxicity, organism-based, Cavia porcellus; details: in vivo
[9] = Cardiotoxicity in guinea pig assessed as effect on QT interval upto 5 mg/kg, iv administered over 10 mins at 30 mins interval by ECG analysis; format: toxicity, organism-based, Cavia porcellus; details: in vivo
[10] = Oral bioavailability in dog at 2.5 mg/kg; format: ADME, organism-based, Canis lupus familiaris; details: in vivo
[11] = Clearance in dog at 0.25 mg/kg, iv to liver blood flow; format: ADME, organism-based, Canis lupus familiaris; details: in vivo
[12] = target: Cytochrome P450 2C19 (Homo sapiens, UniProt P33261); experiment: Inhibition of human CYP2C19 by fluorescence plate reader analysis; format: ADME
Chain of Cytochrome P450 2C19 (P33261 whole entry): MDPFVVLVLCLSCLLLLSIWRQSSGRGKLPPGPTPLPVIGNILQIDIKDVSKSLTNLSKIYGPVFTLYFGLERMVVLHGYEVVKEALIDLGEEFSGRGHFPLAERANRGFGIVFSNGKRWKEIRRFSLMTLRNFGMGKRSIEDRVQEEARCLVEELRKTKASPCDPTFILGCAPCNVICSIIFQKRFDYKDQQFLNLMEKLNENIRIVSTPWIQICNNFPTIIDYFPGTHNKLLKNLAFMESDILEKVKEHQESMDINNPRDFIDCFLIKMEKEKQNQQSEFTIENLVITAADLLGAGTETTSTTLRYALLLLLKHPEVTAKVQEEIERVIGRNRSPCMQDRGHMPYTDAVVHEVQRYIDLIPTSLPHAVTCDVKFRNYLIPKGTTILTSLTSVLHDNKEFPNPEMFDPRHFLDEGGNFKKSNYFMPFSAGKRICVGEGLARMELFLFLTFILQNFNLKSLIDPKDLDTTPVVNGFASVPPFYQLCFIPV

[13] = Free drug concentration in rat brain measured after 5 hrs by HPLC-MS/MS method; format: ADME, tissue-based
[14] = Toxicity in Beagle dog assessed as behavioral changes at 0.31 to 5 mg/kg, po; format: organism-based, Canis lupus familiaris; details: in vivo, dose 0.31-5 mg/kg
[15] = AUC (0 to last) in rat at 2.5 mg/kg, po; format: ADME, organism-based; design: route oral, time 0 - last, dose 2.5 mg/kg; details: in vivo
[16] = Cardiotoxicity in guinea pig assessed as effect on QT cB interval upto 5 mg/kg, iv administered over 10 mins at 30 mins interval by ECG analysis; format: toxicity, organism-based, Cavia porcellus; details: in vivo
[17] = Cmax in rat at 2.3 mg/kg, po; format: ADME, organism-based; design: route oral, dose 2.3 mg/kg; details: in vivo
[18] = Metabolic stability in mouse liver microsomes assessed as metabolite formation after 15 mins in presence of NADPH by LC-MS analysis; format: ADME, Microsome; details: 0.25 h
[19] = Clearance in rat plasma at 0.25 mg/kg, iv; format: ADME, organism-based
[20] = Drug level in CD-1 mouse plasma at 10 mg/kg, po measured at 2 hr post dose; format: ADME, organism-based
[21] = Volume of distribution at steady state in rat at 0.25 mg/kg, iv; format: ADME, organism-based; details: in vivo, read-out: Vdss
[22] = AUC (0 to last) in rat at 2.3 mg/kg, po; format: ADME, organism-based; design: time 0 - last, route oral, dose 2.3 mg/kg; details: in vivo
[23] = AUC (0 to infinity) in rat at 0.25 mg/kg, iv; format: ADME, organism-based; design: route intravenous, time infinity, dose 0.25 mg/kg; details: in vivo
[24] = Oral bioavailability in rat at 2.3 mg/kg; format: ADME, organism-based; details: in vivo
[25] = Drug level in CD-1 mouse plasma at 10 mg/kg, po measured at 1 hr post dose; format: ADME, organism-based
[26] = Cardiotoxicity in guinea pig assessed as effect on blood pressure upto 5 mg/kg, iv administered over 10 mins at 30 mins interval; format: toxicity, organism-based, Cavia porcellus; details: in vivo
[27] = Apparent permeability across apical to basolateral side in dog MDCK-MDR1 cells at 5 uM incubated for 120 mins; format: ADME, cell-based, Canis lupus familiaris
[28] = target: Cathepsin D (Homo sapiens, UniProt P07339); experiment: Inhibition of Cathepsin D (unknown origin)
Chain of Cathepsin D (P07339 65-162 limits assumed): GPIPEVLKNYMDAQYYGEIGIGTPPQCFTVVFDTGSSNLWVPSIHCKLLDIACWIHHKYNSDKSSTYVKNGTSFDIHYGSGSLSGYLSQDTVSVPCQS
Chain of Cathepsin D (P07339 169-412 limits assumed): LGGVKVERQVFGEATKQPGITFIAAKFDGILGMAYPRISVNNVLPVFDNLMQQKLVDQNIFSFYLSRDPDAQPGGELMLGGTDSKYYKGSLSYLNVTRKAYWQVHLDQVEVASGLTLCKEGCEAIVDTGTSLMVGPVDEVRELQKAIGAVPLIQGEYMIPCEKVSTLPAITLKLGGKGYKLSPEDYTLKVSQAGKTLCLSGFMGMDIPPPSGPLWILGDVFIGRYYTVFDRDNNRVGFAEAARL

[29] = Clearance in rat at 0.25 mg/kg, iv relative to liver blood flow; format: ADME, organism-based; details: in vivo
[30] = Toxicity in guinea pig assessed as effect on body temperature at 0.63 to 5 mg/kg, iv administered over 10 mins at 30 mins interval; format: organism-based, Cavia porcellus; details: in vivo, dose 0.63-5 mg/kg
[31] = Cardiotoxicity in guinea pig assessed as effect on PQ interval upto 5 mg/kg, iv administered over 10 mins at 30 mins interval by ECG analysis; format: toxicity, organism-based, Cavia porcellus; details: in vivo
[32] = In vivo inhibition of BACE1 in Beagle dog assessed as reduction of amyloid beta (1 to 42 residues) levels in CSF administered orally by electrochemiluminescence assay; format: functional, organism-based, Canis lupus familiaris
[33] = Metabolic stability in human liver microsomes assessed as metabolite formation after 15 mins in presence of NADPH by LC-MS analysis; format: ADME, Microsome; details: 0.25 h
[34] = target: T2, Beta-secretase 2 (Homo sapiens, UniProt Q9Y5Z0); experiment: Inhibition of BACE2 (unknown origin)
T2 sequence (Q9Y5Z0 whole entry): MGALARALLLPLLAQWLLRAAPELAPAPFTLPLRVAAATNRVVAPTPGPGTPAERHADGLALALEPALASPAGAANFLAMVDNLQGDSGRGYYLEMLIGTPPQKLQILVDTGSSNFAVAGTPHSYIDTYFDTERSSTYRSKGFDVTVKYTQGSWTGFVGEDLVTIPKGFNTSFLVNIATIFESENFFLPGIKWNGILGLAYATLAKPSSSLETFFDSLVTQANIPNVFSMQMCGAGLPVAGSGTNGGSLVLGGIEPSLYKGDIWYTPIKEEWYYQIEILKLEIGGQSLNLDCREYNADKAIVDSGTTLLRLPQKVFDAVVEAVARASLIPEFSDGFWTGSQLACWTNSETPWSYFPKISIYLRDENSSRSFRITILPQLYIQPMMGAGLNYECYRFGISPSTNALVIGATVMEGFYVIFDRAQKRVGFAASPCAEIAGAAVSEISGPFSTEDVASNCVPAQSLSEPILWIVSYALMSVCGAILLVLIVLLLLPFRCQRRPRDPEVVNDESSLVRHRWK

[35] = Volume of distribution at steady state in mouse at 0.28 mg/kg, iv; format: ADME, organism-based; details: in vivo, read-out: Vdss
[36] = tested on: MDR1; experiment: Efflux ratio of apparent permeability in dog MDCK-MDR1 cells; format: ADME, cell-based, Canis lupus familiaris
[37] = Drug level in CD-1 mouse brain at 10 mg/kg, po measured at 4 hr post dose; format: ADME, organism-based; details: read-out: Ct

COc1cnc(C(=O)Nc2ccc(F)c([C@]3(C)Cn4nc(C#N)cc4C(N)=N3)c2)cn1
Tmax [1]: 2.3 h
concentration at 4 h [2]: 530 ng/mL
pIC50 [3]: < 4.52
Activity [4]: Non-Toxic
AUC [5]: 206 ng·h/mL
fraction unbound at 4.5 h [6]: 0.05
half-life [7]: 168 min
Activity [8]: Non-Toxic
Activity [9]: Non-Toxic
bioavailability [10]: 67%
CL [11]: 20%
pIC50 [12]: < 4.52
fraction unbound at 5 h [13]: 0.015
Activity [14]: Non-Toxic
AUClast [15]: 3840 ng·h/mL
Activity [16]: Non-Toxic
Cmax [17]: 124 ng/mL
Drug metabolism [18]: 23%
clearance [19]: 19 mL/min/kg
concentration at 2 h [20]: 866 ng/mL
Vd [21]: 5.3 L/kg
AUClast [22]: 1170 ng·h/mL
AUC [23]: 219 ng·h/mL
bioavailability [24]: 59%
concentration at 1 h [25]: 591 ng/mL
Activity [26]: Non-Toxic
Papp A→B at 2 h, 5 µM [27]: 13.1 ×10⁻⁶ cm/s
pIC50 [28]: < 4.00
CL [29]: 35%
Activity [30]: Non-Toxic
Activity [31]: Non-Toxic
EC90 [32]: 44 ng/mL (≈ 0.105 µM)
EC50 ([32]; Canis lupus familiaris, Beagle): 7.5 ng/mL (≈ 0.0178 µM)
Drug metabolism [33]: 8%
pIC50 [34]: 7.94
Vd [35]: 5.3 L/kg
efflux ratio [36]: 5.3
concentration at 4 h [37]: 402 ng/g
